Laboratory results as given in patent US11078496B2, “System for F-box hormone receptor regulated protein expression in mammalian cells” (ICAHN SCHOOL OF MEDICINE AT MOUNT SINAI, priority 2016, dated 2021).
Where two headings read alike, the source gives them in different places.

Legend:
[1] = test system: AID-fused proteins in mammalian cells; details: cited from earlier work
AID^47-NANOG (A-NANOG) = target: T1, AID^47-NANOG (A-NANOG) (UniProt P93830+Q7XVM8); assay: Auxin-dependent depletion of A-NANOG in mESCs (western blot); format: cell-based, mouse
T1 construct: (encoding NP_001052659); 47-amino acid segment that corresponds to amino acids 63-109 of A. thaliana IAA17; expressed in transfected cells; host or cells: CCE mESCs (lentiviral pRAIDRS)
Experimental: FIGS. 3A-3D illustrate an auxin-degradable NANOG rescue system in mESCs. CCE mESCs were infected with pRAIDRS AID^47-NANOG (A-NANOG) or GFP-AID^47 (“GFP-A”) and selected clones with ESC morphology were analyzed for the effect of auxin (“IAA”) treatment. FIG. 3A is a western blot analysis depicting endogenous NANOG (*) and A-NANOG (**) in parental mESCs, and in the indicated clones. β-Actin serves as a loading control. Experiment was repeated three times and a representative blot is presented. FIG. 3B are images of mESC clones plated at low density, grown in the presence of ethanol (“Con”) or auxin (“IAA”) for 3-4 days and assayed for AP activity. GFP-A mESCs reached the desired confluency a day earlier and therefore the images were taken on different days. FIG. 3C are bright-field images showing representative morphology of A-NANOG mESCs following 3 days of ethanol (“Con”) or auxin (“IAA”) treatment (upper part) and merged bright-field and GFP fluorescence images of ethanol or auxin-treated GFP-A mESCs (lower part). Scale bars, 100 μm. […] All cells were subjected to the same concentration of ethanol for the duration of experiment. Quantitative real-time PCR analysis was performed for selected self-renewal and differentiation markers, and normalized expression levels are represented as a heatmap. […] See also FIGS. 4A-4F and FIG. 15. […]

T1 sequence (Q7XVM8 whole entry, the tested form may be a part): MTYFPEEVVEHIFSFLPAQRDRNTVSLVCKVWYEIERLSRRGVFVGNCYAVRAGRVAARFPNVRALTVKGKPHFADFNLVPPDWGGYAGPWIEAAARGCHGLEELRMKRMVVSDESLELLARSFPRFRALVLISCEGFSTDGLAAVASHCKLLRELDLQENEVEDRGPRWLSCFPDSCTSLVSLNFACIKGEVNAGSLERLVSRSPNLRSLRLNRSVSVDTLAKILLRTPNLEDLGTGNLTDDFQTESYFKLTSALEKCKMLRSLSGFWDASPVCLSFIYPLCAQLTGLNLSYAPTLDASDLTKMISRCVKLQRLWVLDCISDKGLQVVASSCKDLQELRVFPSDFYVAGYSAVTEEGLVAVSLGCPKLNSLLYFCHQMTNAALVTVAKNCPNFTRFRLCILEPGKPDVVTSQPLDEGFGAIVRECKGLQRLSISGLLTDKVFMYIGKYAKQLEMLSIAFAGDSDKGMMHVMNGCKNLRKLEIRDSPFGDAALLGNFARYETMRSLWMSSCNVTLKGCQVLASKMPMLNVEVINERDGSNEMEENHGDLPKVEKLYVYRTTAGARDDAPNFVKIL
T1 sequence (P93830 63-109): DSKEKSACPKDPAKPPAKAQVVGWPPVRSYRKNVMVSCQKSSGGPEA

depletion of A-NANOG (AID^47-NANOG (A-NANOG); A-NANOG #2 mESCs, 50 μM auxin, 30 minutes, western blot): complete depletion | time for >95% degradation of NANOG (AID^47-NANOG (A-NANOG); pRAIDRS system, auxin-dependent protein depletion): 20 to 30 min
Structure (SMILES): O=C(O)Cc1c[nH]c2ccccc12 [auxin, indole-3-acetic acid]
rapidity of auxin-dependent protein depletion ([1]; reported by Han et al.): ~90 min | rapidity of auxin-dependent protein depletion ([1]; reported by Holland et al.): 60 to 100 min | rapidity of auxin-dependent protein depletion ([1]; reported by Lambrus et al.): 10 to 30 min | rapidity of auxin-dependent protein depletion ([1]; reported by Rodriguez-Bravo et al.): > 120 min
